Data reported in patent publication US20260355197A1, “METHOD FOR TREATING ATOPIC DERMATITIS” (BEIJING INNOCARE PHARMA TECH CO., LTD., priority 2023, published 2026).

Assays:
[1] = test system: patients with moderate to severe atopic dermatitis; assay: Phase 2 randomized, double-blind, placebo-controlled clinical study of ICP-332 in atopic dermatitis patients; type: in vivo, human; conditions: Week 4
[2] = test system: patients with moderate to severe atopic dermatitis; assay: EASI-75 (difference from placebo) of ICP-332 versus other drugs for treating AD as monotherapy, not head-to-head; type: in vivo, human; conditions: ICP-332 4 weeks, other drugs 12 or 16 weeks, approved recommended doses, phase III published literature
Text: The treatment period for ICP-332 was 4 weeks, while it was 12 or 16 weeks for other drugs with their approved recommended doses from phase III studies. The data of other drugs are based on available published literature.
This is a randomized, double-blind, placebo-controlled, phase 2 study to evaluate the safety, efficacy, pharmacokinetics, and pharmacodynamics of ICP-332 (Compound A) in patients with moderate to severe atopic dermatitis.
A total of 75 subjects with 25 subjects in each group are enrolled. • (1) ICP-332 80 mg, QD for 28 days (40 mg*2 tablets+Placebo*1 tablet) • (2) ICP-332 120 mg. QD for 28 days (40 mg*3 tablets) • (3) Placebo. QD for 28 days (Placebo*3 tablets)

Cn1cc(Nc2ncc(Cl)c(N3C[C@@H]4CN(C(=O)CC#N)C[C@]4(C)C3)n2)cn1 [ICP-332]
EASI 50, EASI 75, EASI 90, IGA 0/1 ([1]; 80 mg qd oral): significant improvements
percent change from baseline in EASI total score ([1]; 80 mg qd oral): significantly reduced the EASI total score (p<0.0001)
EASI 50, EASI 75, EASI 90, IGA 0/1 ([1]; 120 mg qd oral): significant improvements
percent change from baseline in EASI total score ([1]; 120 mg qd oral): significantly reduced the EASI total score (p<0.0001)
EASI-75 (difference from placebo) versus other drugs [2]: best EASI-75 value over placebo
